# Reference: article PMC9424909, “Rutin alleviated acrolein-induced cytotoxicity in Caco-2 and GES-1 cells by forming a cyclic hemiacetal product” (Frontiers in Nutrition, 2022)
# Several values for one entry are separate records, joined by “and”; a condition that tells them apart may be missing. Equal entries are not always repeated. Where two headings read alike, the source gives them in different places.
# What was measured:
# [1] = incubating with equal concentrations of ACR for 12 h at 37°C ref 25; cited from earlier work
# Caco-2 cells [2] = test: apoptosis assay, Annexin-V FITC/PI flow cytometry; type: cell-based, human; details: 24 h
# Method: (§1) The Caco-2 cell line and GES-1 cell line were obtained from iCell Bioscience (Shanghai, China). As described by Chai et al. ([40]) with a bit modification, the Caco-2 cells were cultured within a medium composed of DMEM supplemented with 1% (v/v) NEAA, 10% (v/v) FBS, and penicillin and streptomycin (100 U/mL). GES-1 cells were cultivated according to Xu et al. ([41]) with slight modifications as follows: DMEM medium including 1% (v/v) NEAA, 10% (v/v) FBS, and penicillin and streptomycin (100 U/mL). Cells were all maintained in a humidified incubator containing 5% CO2 and 95% air at 37°C.
# (§2) Cell apoptosis assay was conducted in refer to Abas et al. ([42]) with modifications. In short, cells at a density of 1 × 10^4 cells/well were seeded in 96-well plates and incubated overnight, followed by exposure to different concentrations of ACR and RAC for another 24 h. After that, cells were rinsed twice with PBS, resuspended in 200 μL of Annexin-binding buffer, and finally stained with Annexin-V FITC and PI (5 μL each) for 10 min at 37°C in darkness. After adding 400 μL of Annexin-binding buffer, the signal intensity was measured using a FACSCalibur (Becton Dickinson, CA, USA) flow cytometry within 1 h, and data was analyzed with FlowJo software (Ashland, OR, USA).
# GES-1 cells [3] = test: apoptosis assay, Annexin-V FITC/PI flow cytometry; type: cell-based, human; details: GES-1, 60 μM
# Method: as §1, §2
# [4] = cell survival, CCK-8 assay; type: cell-based, human; details: human; for viability at 24 h, 140 µM: incubation 24 h, read-out: cell viability (viable cell number); for IC50 at 48 h: read-out: IC50 (cytotoxicity)
# Method: as §1
# (§3) The effects of ACR and RAC on cell survival (both Caco-2 and GES-1 cells) were measured by the CCK-8 assay ([41]). Briefly, cells (1 × 10^4 cells/well) were seeded into a 96-well plate and cultivated overnight. […] After cells were rinsed twice with PBS and resuspended in 100 μL of DMEM supplemented with 10% FBS, 10 μL of CCK-8 solution was added into each well and the plate was maintained for 1 h in the incubator. The plate was read at 450 nm on a microplate reader (BioTek, Epoch 2, USA), and all experiments were performed thrice. Cell viability was expressed as a percentage of the control group as shown below:
# (§4) Cell viability (%) = A sample/A control × 100%
# (§5) Where A sample was the absorbance (Abs) of the cells incubated with different concentrations of sample solutions, and A control was the Abs of the cells incubated without sample solution.
# Caco-2 cells [5] = test: cell survival, CCK-8 assay; type: cell-based, human; details: Caco-2
# Method: as §1, §3, §4, §5
# GES-1 cells [6] = test: cell survival, CCK-8 assay; type: cell-based, human; details: GES-1
# Method: as §1, §3, §4, §5
# [7] = in vitro simulated oral, gastric and intestinal digestion of RAC (HPLC); type: in vitro ADME
# Method: The simulated oral, gastric, and intestinal digestion experiments of RAC were carried out according to Mamone et al. ([39]) with minor adjustments. One milliliter of RAC (1 mg/mL) was mixed with 4 mL SSF and stirred at 170 rpm for 2 min in lightproof condition to mimic the oral phase digestion. Based on the oral stage, 10 mL of SGF was added and reacted for another 2 h under the same condition to imitate the gastric phase digestion. To investigate the intestinal phase digestion, 20 mL of SIF was further added, and the mixture was stirred for another 2 h after simulated gastric digestion. For each stage, the same volume of deionized water was used in place of the corresponding digestive fluid as the control. At the end of each stage, 0.8 mL of the mixture was withdrawn and diluted with MeOH to 1.0 mL for HPLC analysis.
# The standard curve of RAC was prepared as follows: one milligram of RAC was dissolved with MeOH to a final concentration of 1 mg/mL. The above solution was further used to prepare a series of RAC concentrations at 0.02, 0.04, 0.08, 0.2, and 1.0 mg/mL, respectively. The HPLC conditions for the determination of the content of RAC in the digestion mixture and the preparation of the standard curve of RAC were the same as those for the analysis of RAC, except that the detection wavelength was at 358 nm.
# Caco-2 cells [8] = test: JC-1 staining, mitochondrial membrane potential (MMP); type: cell-based, human; details: 24 h
# Method: as §1
# (§6) After incubation with different concentrations of samples, the changes of MMP in Caco-2 and GES-1 cells were measured in accordance with Liu et al., with slight modifications ([43]). In brief, cells (1 × 10^4 cells/well) were exposed to different concentrations of ACR and RAC for 24 h, respectively. Then 500 μL of JC-1 staining solution was added into each well and the plate was further incubated at 37°C for 15 min. Cells were then rinsed twice with 1 mL of staining buffer and resuspended with 500 μL of staining buffer prior to MMP determination in the flow cytometry.
# GES-1 cells [9] = test: as above; type: cell-based, human; details: 24 h
# Method: as §1, §6
# [10] = design: method as in PMID 19743801; details: simulated physiological conditions ref 21; cited from earlier work
structure (smiles),measurement,setting,value
COc1ccc([C@@H]2CC(=O)c3c(O)cc(O)cc3O2)cc1O [hesperetin],ACR eliminated,[1],94.87%
CC1OC(OCC2OC(Oc3c(-c4ccc(O)c(O)c4)oc4c5c(cc(O)c4c3=O)OC(O)CC5)C(O)C(O)C2O)C(O)C(O)C1O (racemic) [RAC],apoptotic cells,"Caco-2 cells [2]; Caco-2, 20 μM",8.3%
same,apoptotic cells,"Caco-2 cells [2]; Caco-2, 60 μM",10.81%
same,"apoptotic rate, fold below the 60 μM ACR-treated group",GES-1 cells [3],5.4 fold
same,apoptotic rate,GES-1 cells [3]; 24 h,12.59%
same,"viability at 24 h, 140 µM","[4]; Caco-2 cells, Caco-2, 140 μM",> 75%
same,IC50 at 48 h,"[4]; Caco-2 cells, Caco-2, CCK-8",> 140 µM
same,"viability at 24 h, 140 µM","[4]; GES-1 cells, GES-1, 140 μM",> 75%
same,IC50 at 48 h,"[4]; GES-1 cells, GES-1, CCK-8",> 140 µM
same,"viability of RAC-treated cells, fold higher than ACR-treated cells",Caco-2 cells [5],10 fold
same,"viability of RAC-treated cells, fold higher than ACR-treated cells",GES-1 cells [6],6.5 fold
same,The amount of RAC,[7]; Initial,2.99 ± 0.01 mg
same,Decrease of RAC,[7]; SGF 30 min (gastric),16.39%
same,The amount of RAC,[7]; SGF 30 min (gastric),2.50 ± 0.06 mg and 2.50 ± 0.06 a mg
same,Decrease of RAC,[7]; SGF 60 min (gastric),16.05%
same,The amount of RAC,[7]; SGF 60 min (gastric),2.51 ± 0.04 a mg
same,The content of RAC,[7]; SGF 60 min (gastric),0.167 ± 0.0028 mg/mL
same,Decrease of RAC,[7]; SGF 90 min (gastric),21.07%
same,The amount of RAC,[7]; SGF 90 min (gastric),2.36 ± 0.04 b mg
same,The content of RAC,[7]; SGF 90 min (gastric),0.157 ± 0.0029 mg/mL
same,Decrease of RAC,[7]; SGF 120 min (gastric),24.41%
same,The amount of RAC,[7]; SGF 120 min (gastric),2.26 ± 0.03 b mg
same,Decrease of RAC,[7]; SIF 30 min (intestinal),13.38%
same,The amount of RAC,[7]; SIF 30 min (intestinal),2.59 ± 0.01 a mg
same,The content of RAC,[7]; SIF 30 min (intestinal),0.074 ± 0.0002 mg/mL
same,Decrease of RAC,[7]; SIF 60 min (intestinal),14.72%
same,The amount of RAC,[7]; SIF 60 min (intestinal),2.55 ± 0.01 b mg
same,The content of RAC,[7]; SIF 60 min (intestinal),0.073 ± 0.0002 mg/mL
same,Decrease of RAC,[7]; SIF 90 min (intestinal),14.38%
same,The amount of RAC,[7]; SIF 90 min (intestinal),2.56 ± 0.01 b mg
same,The content of RAC,[7]; SIF 90 min (intestinal),0.073 ± 0.0002 mg/mL
same,Decrease of RAC,[7]; SIF 120 min (intestinal),16.39%
same,The amount of RAC,[7]; SIF 120 min (intestinal),2.50 ± 0.01 mg and 2.50 ± 0.01 c mg
same,The content of RAC,[7]; SIF 120 min (intestinal),0.072 ± 0.0004 mg/mL
same,Decrease of RAC,[7]; SSF 2 min (oral),0.33%
same,The amount of RAC,[7]; SSF 2 min (oral),2.98 ± 0.01 mg
same,The content of RAC,[7]; SSF 2 min (oral),0.595 ± 0.0018 mg/mL
same,ratio of red/green fluorescence intensity,"Caco-2 cells [8]; Caco-2, 20 μM",17.64 ± 0.69
same,ratio of red/green fluorescence intensity,"Caco-2 cells [8]; Caco-2, 40 μM",15.16 ± 0.59
same,ratio of red/green fluorescence intensity,"Caco-2 cells [8]; Caco-2, 60 μM",9.47 and 9.47 ± 0.37
same,ratio of red/green fluorescence intensity,"GES-1 cells [9]; GES-1, 20 μM",13.32 ± 0.43
same,ratio of red/green fluorescence intensity,"GES-1 cells [9]; GES-1, 40 μM",10.59 ± 0.33
same,ratio of red/green fluorescence intensity,"GES-1 cells [9]; GES-1, 60 μM",6.72 and 6.72 ± 0.30
O=C(CCc1ccc(O)cc1)c1c(O)cc(O)cc1O [phloretin],ACR quenched,[10],more than 99%
